Our source for the affinity and Kd values is publication PMC7959842, “Deregulation of Factor H by Factor H-Related Protein 1 Depends on Sialylation of Host Surfaces” (Frontiers in Immunology, 2021).

Holding throughout (type): binding
Experiment [1] concerns the target T1, FH18-20 (Homo sapiens, UniProt P08603).
T1 construct: gene CFH; C-terminal fragment CCP18-20, monomeric, recombinant from Pichia pastoris
T1 sequence (P08603 1046-1231 limits assumed): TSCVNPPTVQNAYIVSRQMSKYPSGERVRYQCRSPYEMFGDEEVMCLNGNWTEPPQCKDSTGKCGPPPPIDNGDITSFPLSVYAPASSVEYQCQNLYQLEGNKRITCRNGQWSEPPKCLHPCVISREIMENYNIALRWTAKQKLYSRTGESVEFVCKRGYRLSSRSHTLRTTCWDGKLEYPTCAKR
As to the kind of experiment: intrinsic tryptophan fluorescence (nanoDSF), titration; also STD NMR. The conditions noted are these: 50 mM HEPES pH 7.4, 150 mM NaCl, 3 mM EDTA; 20 and 37 °C; in solution. A general note: Differential scanning fluorimetry follows unfolding on heating by fluorescence.

Another experiment concerns the target T2, FH19-20 (Homo sapiens, UniProt P08603).
T2 construct: gene CFH; C-terminal fragment CCP19-20, recombinant from Pichia pastoris
T2 sequence (P08603 1107-1231 limits assumed): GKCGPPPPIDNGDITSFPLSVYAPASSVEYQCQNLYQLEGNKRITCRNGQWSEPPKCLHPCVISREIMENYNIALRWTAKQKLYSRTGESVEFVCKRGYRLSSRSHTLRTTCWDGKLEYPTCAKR
Put plainly: SPR, immobilised glycan, concentration series. The conditions noted are these: labelled compound (biotin-coupled on streptavidin chip); PBS, 0.005% Tween20, 25 °C; rough estimate, saturation not reached; read-out: affinity.

For experiment [2], the target named is T1, FH18-20. As to the kind of experiment: SPR, immobilised glycan, concentration series. The conditions noted are these: labelled compound (biotin-coupled on streptavidin chip); PBS, 0.005% Tween20, 25 °C; rough estimate, saturation not reached; read-out: affinity.

Consider `CC(=O)N[C@H]1[C@H]([C@H](O)[C@H](O)CO)O[C@@](O[C@H]2[C@@H](O)[C@@H](CO)O[C@@H](O[C@H]3[C@H](O)[C@@H](O)C(O)O[C@@H]3CO)[C@@H]2O)(C(=O)O)C[C@@H]1O` (stereo partly drawn) [3’-sialyllactose], for which the affinity entry at FH18-20 [1] is reported as “monovalent interactions in solution were generally weaker; with estimated affinities in the millimolar range”. For the compound “biotinylated 3´-sialyl-N-acetyllactosaminide”, the Kd on FH19-20 and on FH18-20 [2] was greater than 100 µM in each case.
